Assay results: ChEMBL document CHEMBL3124856, “Design, synthesis, and pharmacological evaluation of a novel series of pyridopyrazine-1,6-dione γ-secretase modulators” (J Med Chem, 2014)
In brackets after ≈: the same amount, converted by molar mass.

How the values were obtained:
[1] = Drug uptake in Hartley guinea pig cerebrospinal fluid at 90 mg/kg, po after 4 hrs post dosing; type: ADME, organism-based, Cavia porcellus; design: dose 90 mg/kg, route oral; conditions: read-out: Drug uptake
[2] = Fraction unbound in rat plasma; type: ADME, cell-free
[3] = tested on: MDR1 (human); assay: Permeability from apical to basolateral side in MDCK cells expressing human MDR; type: ADME, cell-based, Canis lupus familiaris; conditions: dog, read-out: permeability
[4] = Fraction unbound in Hartley guinea pig brain; type: ADME, tissue-based, Cavia porcellus
[5] = tested on: Cavia porcellus; assay: Antialzheimer activity in Hartley guinea pig assessed as increase in brain amyloid beta 38 level at 30 mg/kg, po measured after 4 hrs post dosing relative to control; type: functional
[6] = molecular target: Gamma-secretase; assay: Modulation of gamma secretase in HEK293 NdeltaE cells assessed as inhibition of notch signalling; type: cell-based, Homo sapiens
[7] = tested on: Cavia porcellus; assay: Antialzheimer activity in Hartley guinea pig assessed as increase in brain amyloid beta 38 level at 90 mg/kg, po measured after 4 hrs post dosing relative to control; type: functional
[8] = Drug uptake in Hartley guinea pig brain at 90 mg/kg, po after 4 hrs post dosing; type: ADME, organism-based, Cavia porcellus; design: dose 90 mg/kg, route oral; conditions: read-out: Drug uptake
[9] = molecular target: Cytochrome P450 2D6 (Homo sapiens, UniProt P10635); assay: Inhibition of CYP2D6 (unknown origin); type: ADME
[10] = tested on: Cavia porcellus; assay: Antialzheimer activity in Hartley guinea pig assessed as reduction in brain amyloid beta 40 level at 90 mg/kg, po measured after 4 hrs post dosing relative to control; type: functional; design: scale not given: the % may be the effect or the level left
[11] = Fraction unbound in rat brain; type: ADME, tissue-based
[12] = Apparent intrinsic clearance in human liver microsomes; type: ADME; conditions: read-out: CLH(app)
[13] = Clearance in rat at 1 mg/kg, iv; type: ADME, organism-based; design: dose 1 mg/kg, route intravenous; conditions: in vivo
[14] = Fraction unbound in Hartley guinea pig plasma; type: ADME, cell-free, Cavia porcellus
[15] = Plasma concentration in Hartley guinea pig at 90 mg/kg, po after 4 hrs post dosing; type: ADME, organism-based, Cavia porcellus; design: dose 90 mg/kg, route oral
[16] = tested on: Cavia porcellus; assay: Antialzheimer activity in Hartley guinea pig assessed as reduction in brain total amyloid beta level at 10 mg/kg, po measured after 4 hrs post dosing relative to control; type: functional; design: scale not given: the % may be the effect or the level left
[17] = tested on: Cavia porcellus; assay: Antialzheimer activity in Hartley guinea pig assessed as reduction in brain total amyloid beta level at 90 mg/kg, po measured after 4 hrs post dosing relative to control; type: functional; design: scale not given: the % may be the effect or the level left
[18] = tested on: Cavia porcellus; assay: Antialzheimer activity in Hartley guinea pig assessed as reduction in brain amyloid beta 42 level at 90 mg/kg, po measured after 4 hrs post dosing relative to control; type: functional; design: scale not given: the % may be the effect or the level left
[19] = molecular target: T1, Cytochrome P450 2C8 (Homo sapiens, UniProt P10632); assay: Inhibition of CYP2C8 (unknown origin); type: ADME
T1 sequence (P10632 whole entry): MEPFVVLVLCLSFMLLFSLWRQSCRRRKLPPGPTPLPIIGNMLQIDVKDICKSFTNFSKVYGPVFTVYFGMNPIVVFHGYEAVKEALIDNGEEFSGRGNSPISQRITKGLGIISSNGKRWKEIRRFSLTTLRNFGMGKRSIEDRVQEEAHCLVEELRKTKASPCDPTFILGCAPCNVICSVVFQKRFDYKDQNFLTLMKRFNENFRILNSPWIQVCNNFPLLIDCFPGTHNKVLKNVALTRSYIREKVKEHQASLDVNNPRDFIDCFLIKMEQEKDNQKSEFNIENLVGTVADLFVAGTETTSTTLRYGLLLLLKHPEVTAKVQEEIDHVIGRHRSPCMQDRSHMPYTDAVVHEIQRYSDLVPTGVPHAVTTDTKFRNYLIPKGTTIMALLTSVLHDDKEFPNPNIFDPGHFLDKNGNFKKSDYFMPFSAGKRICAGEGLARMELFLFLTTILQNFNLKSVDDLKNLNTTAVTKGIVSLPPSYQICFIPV

[20] = Aqueous kinetic solubility of the compound at pH 6.5; type: physicochemical; conditions: read-out: Kinetic_solubility
[21] = tested on: Cavia porcellus; assay: Antialzheimer activity in Hartley guinea pig assessed as reduction in brain total amyloid beta level at 30 mg/kg, po measured after 4 hrs post dosing relative to control; type: functional; design: scale not given: the % may be the effect or the level left
[22] = Volume of distribution at steady state in rat at 1 mg/kg, iv; type: ADME, organism-based; design: dose 1 mg/kg, route intravenous; conditions: in vivo, read-out: Vdss
[23] = tested on: Cavia porcellus; assay: Antialzheimer activity in Hartley guinea pig assessed as reduction in brain amyloid beta 42 level at 10 mg/kg, po measured after 4 hrs post dosing relative to control; type: functional; design: scale not given: the % may be the effect or the level left
[24] = tested on: Cavia porcellus; assay: Antialzheimer activity in Hartley guinea pig assessed as reduction in brain amyloid beta 40 level at 10 mg/kg, po measured after 4 hrs post dosing relative to control; type: functional; design: scale not given: the % may be the effect or the level left
[25] = Ratio of drug uptake in brain to plasma in rat at 5 mg/kg, po after 1 hr; type: ADME, organism-based; design: dose 5 mg/kg, route oral; conditions: read-out: BPR
[26] = Passive apparent permeability from apical to basolateral side in RRCK cells; type: ADME, cell-based, Canis lupus familiaris, MDCKII-LE; conditions: dog, MDCK
[27] = Drug uptake in rat brain at 5 mg/kg, po after 1 hr; type: ADME, organism-based; design: dose 5 mg/kg, route oral; conditions: read-out: Drug uptake
[28] = tested on: Cavia porcellus; assay: Antialzheimer activity in po dosed Hartley guinea pig assessed as reduction in brain amyloid beta 40 level measured after 4 hrs post dosing; type: functional, organism-based
[29] = Plasma concentration in rat at 5 mg/kg, po after 1 hr; type: ADME, organism-based; design: dose 5 mg/kg, route oral
[30] = Apparent intrinsic clearance in rat liver microsomes; type: ADME; conditions: read-out: CLH(app)
[31] = Half life in rat at 1 mg/kg, iv; type: ADME, organism-based; design: dose 1 mg/kg, route intravenous; conditions: in vivo
[32] = Drug uptake in Hartley guinea pig cerebrospinal fluid at 30 mg/kg, po after 4 hrs post dosing; type: ADME, organism-based, Cavia porcellus; design: dose 30 mg/kg, route oral; conditions: read-out: Drug uptake
[33] = Drug uptake in Hartley guinea pig cerebrospinal fluid at 10 mg/kg, po after 4 hrs post dosing; type: ADME, organism-based, Cavia porcellus; design: dose 10 mg/kg, route oral; conditions: read-out: Drug uptake
[34] = molecular target: Cytochrome P450 2C19 (Homo sapiens, UniProt P33261); assay: Inhibition of CYP2C19 (unknown origin); type: ADME
[35] = Bioavailability in rat at 1 mg/kg, iv and 5 mg/kg, po; type: ADME, organism-based; conditions: in vivo
[36] = molecular target: Gamma-secretase; assay: Modulation of gamma-secretase (unknown origin) expressed in CHO cells overexpressing human wild type APP assessed as reduction of amyloid beta 42 level after 24 hrs by ELISA; type: cell-based
[37] = molecular target: Cytochrome P450 3A4 (Homo sapiens, UniProt P08684); assay: Inhibition of CYP3A4 (unknown origin); type: ADME
[38] = Plasma concentration in Hartley guinea pig at 10 mg/kg, po after 4 hrs post dosing; type: ADME, organism-based, Cavia porcellus; design: dose 10 mg/kg, route oral
[39] = tested on: Cavia porcellus; assay: Antialzheimer activity in po dosed Hartley guinea pig assessed as reduction in brain amyloid beta 42 level measured after 4 hrs post dosing; type: functional, organism-based
[40] = Drug uptake in Hartley guinea pig brain at 30 mg/kg, po after 4 hrs post dosing; type: ADME, organism-based, Cavia porcellus; design: dose 30 mg/kg, route oral; conditions: read-out: Drug uptake
[41] = tested on: Cavia porcellus; assay: Antialzheimer activity in Hartley guinea pig assessed as reduction in brain amyloid beta 40 level at 30 mg/kg, po measured after 4 hrs post dosing relative to control; type: functional; design: scale not given: the % may be the effect or the level left
[42] = Plasma concentration in Hartley guinea pig at 30 mg/kg, po after 4 hrs post dosing; type: ADME, organism-based, Cavia porcellus; design: dose 30 mg/kg, route oral
[43] = molecular target: Cytochrome P450 2C9 (Homo sapiens, UniProt P11712); assay: Inhibition of CYP2C9 (unknown origin); type: ADME
[44] = Drug uptake in Hartley guinea pig brain at 10 mg/kg, po after 4 hrs post dosing; type: ADME, organism-based, Cavia porcellus; design: dose 10 mg/kg, route oral; conditions: read-out: Drug uptake
[45] = Lipophilicity, log D of the compound by shake flask method; type: physicochemical; conditions: octanol/water
[46] = tested on: Cavia porcellus; assay: Antialzheimer activity in Hartley guinea pig assessed as increase in brain amyloid beta 38 level at 10 mg/kg, po measured after 4 hrs post dosing relative to control; type: functional
[47] = molecular target: T2, Cytochrome P450 1A2 (Homo sapiens, UniProt P05177); assay: Inhibition of CYP1A2 (unknown origin); type: ADME
T2 sequence (P05177 whole entry): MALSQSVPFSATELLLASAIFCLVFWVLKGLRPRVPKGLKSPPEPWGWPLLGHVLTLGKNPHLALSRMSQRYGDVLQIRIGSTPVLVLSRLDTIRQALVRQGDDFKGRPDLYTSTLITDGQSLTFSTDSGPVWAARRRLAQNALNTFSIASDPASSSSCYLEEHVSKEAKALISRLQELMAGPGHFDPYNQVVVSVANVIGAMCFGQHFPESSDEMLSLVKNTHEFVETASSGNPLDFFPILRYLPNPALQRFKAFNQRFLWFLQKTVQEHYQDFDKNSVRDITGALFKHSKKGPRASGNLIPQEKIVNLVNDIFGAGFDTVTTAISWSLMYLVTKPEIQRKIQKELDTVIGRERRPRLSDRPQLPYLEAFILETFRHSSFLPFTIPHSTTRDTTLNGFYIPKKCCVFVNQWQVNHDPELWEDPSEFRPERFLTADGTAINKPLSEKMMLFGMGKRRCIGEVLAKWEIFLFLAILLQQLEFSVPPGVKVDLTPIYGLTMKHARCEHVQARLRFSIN

[48] = tested on: MDR1 (human); assay: Efflux ratio of permeability in MDCK cells expressing human MDR1; type: ADME, cell-based, Canis lupus familiaris; conditions: dog
[49] = Ratio of unbound drug level in brain to plasma in rat; type: ADME
[50] = tested on: Cavia porcellus; assay: Antialzheimer activity in Hartley guinea pig assessed as reduction in brain amyloid beta 42 level at 30 mg/kg, po measured after 4 hrs post dosing relative to control; type: functional; design: scale not given: the % may be the effect or the level left
[51] = Half life in human hepatocytes; type: ADME, cell-based, Hepatocyte
[52] = Apparent intrinsic clearance in human hepatocytes; type: ADME, cell-based, Hepatocyte; conditions: read-out: CLH(app)

Chain of Cytochrome P450 2C19 (P33261 whole entry): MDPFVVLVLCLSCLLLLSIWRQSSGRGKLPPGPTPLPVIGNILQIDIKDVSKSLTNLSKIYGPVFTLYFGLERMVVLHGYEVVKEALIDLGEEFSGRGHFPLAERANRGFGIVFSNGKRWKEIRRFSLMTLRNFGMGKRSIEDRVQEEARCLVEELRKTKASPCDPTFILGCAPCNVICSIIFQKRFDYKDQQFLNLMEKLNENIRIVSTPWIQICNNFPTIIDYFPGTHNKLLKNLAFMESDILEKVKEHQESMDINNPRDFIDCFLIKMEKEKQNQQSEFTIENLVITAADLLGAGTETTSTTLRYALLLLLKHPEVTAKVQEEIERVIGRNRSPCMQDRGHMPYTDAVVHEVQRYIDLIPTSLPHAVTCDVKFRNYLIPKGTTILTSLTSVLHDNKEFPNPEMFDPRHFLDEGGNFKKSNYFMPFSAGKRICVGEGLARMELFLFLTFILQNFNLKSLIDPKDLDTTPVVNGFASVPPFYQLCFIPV
Chain of Cytochrome P450 2C9 (P11712 whole entry): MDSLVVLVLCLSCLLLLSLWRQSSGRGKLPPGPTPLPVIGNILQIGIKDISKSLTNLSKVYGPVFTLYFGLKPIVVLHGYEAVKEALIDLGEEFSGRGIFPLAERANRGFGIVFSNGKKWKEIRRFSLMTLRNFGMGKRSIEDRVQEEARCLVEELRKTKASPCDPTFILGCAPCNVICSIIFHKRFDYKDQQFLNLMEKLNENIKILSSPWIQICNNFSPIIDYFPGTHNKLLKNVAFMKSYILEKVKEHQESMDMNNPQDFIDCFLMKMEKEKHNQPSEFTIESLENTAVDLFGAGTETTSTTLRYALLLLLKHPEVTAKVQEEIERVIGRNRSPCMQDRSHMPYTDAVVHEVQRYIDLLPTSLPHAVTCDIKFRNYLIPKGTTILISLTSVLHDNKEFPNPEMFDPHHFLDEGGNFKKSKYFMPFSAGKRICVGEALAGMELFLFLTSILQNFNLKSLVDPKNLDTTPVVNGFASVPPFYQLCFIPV
Chain of Cytochrome P450 3A4 (P08684 whole entry): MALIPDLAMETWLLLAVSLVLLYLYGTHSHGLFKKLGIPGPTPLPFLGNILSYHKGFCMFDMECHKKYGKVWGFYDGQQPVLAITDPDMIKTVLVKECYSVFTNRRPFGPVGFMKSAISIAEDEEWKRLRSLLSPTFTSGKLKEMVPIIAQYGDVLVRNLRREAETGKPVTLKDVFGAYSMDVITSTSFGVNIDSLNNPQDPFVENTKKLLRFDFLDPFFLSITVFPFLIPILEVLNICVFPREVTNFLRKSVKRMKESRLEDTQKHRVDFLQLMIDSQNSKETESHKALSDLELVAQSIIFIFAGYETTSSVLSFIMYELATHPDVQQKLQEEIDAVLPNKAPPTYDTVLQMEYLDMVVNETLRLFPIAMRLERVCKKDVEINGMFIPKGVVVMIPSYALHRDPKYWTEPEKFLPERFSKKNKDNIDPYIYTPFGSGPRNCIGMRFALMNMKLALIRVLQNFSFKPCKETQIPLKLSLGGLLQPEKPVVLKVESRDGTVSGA
Chain of Cytochrome P450 2D6 (P10635 whole entry): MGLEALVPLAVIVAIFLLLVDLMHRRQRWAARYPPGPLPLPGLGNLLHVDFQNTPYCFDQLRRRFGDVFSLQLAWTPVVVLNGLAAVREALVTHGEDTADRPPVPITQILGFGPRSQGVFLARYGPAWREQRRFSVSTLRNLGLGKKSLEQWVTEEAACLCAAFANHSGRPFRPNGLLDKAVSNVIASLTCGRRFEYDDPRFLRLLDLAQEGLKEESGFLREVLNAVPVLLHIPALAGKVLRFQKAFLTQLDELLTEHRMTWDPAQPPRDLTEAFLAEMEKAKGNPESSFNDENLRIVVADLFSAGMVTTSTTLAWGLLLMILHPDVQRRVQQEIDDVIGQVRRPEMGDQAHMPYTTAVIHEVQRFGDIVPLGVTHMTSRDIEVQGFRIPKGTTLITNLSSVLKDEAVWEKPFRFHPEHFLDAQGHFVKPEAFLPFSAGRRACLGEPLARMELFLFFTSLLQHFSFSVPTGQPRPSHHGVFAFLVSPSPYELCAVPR

## Cc1cn(-c2ccc3n(c2=O)CCN(CCOc2ccc(Cl)cc2C(F)(F)F)C3=O)cn1
[1]
  concentration at 4 h: 239 nM
[2]
  fraction unbound: 0.0063
[3]
  Papp A→B: 5.8 ×10⁻⁶ cm/s
[4]
  fraction unbound: 0.008
[5]
  Activity: 108%
[6]
  IC50: > 50 µM
[7]
  Activity: 131%
[8]
  concentration at 4 h: 52400 nM
[9]
  IC50: > 30 µM
[10]
  Activity: 37%
[11]
  fraction unbound: 0.0084
[12]
  CLint scaled: < 8 mL/min/kg
[13]
  clearance: 1.41 mL/min/kg
[14]
  fraction unbound: 0.07
[15]
  concentration at 4 h: 7300 nM
[16]
  Activity: 100%
[17]
  Activity: 82%
[18]
  Activity: 32%
[19]
  IC50: 12.3 µM
[20]
  solubility kinetic: 95.6 µM (≈ 44.6 µg/mL)
[21]
  Activity: 92%
[22]
  Vd: 0.69 L/kg
[23]
  Activity: 81%
[24]
  Activity: 88%
[25]
  Kp at 1 h: 0.24
[26]
  Papp A→B: 10.5 ×10⁻⁶ cm/s
[27]
  concentration at 1 h: 1000 ng/mL
[28]
  Activity: Dose-dependent effect
[29]
  concentration at 1 h: 4140 ng/mL
[30]
  CLint scaled: 47.6 mL/min/kg
[31]
  half-life: 6.88 h
[32]
  concentration at 4 h: 35.7 nM
[33]
  concentration at 4 h: 12.7 nM
[34]
  IC50: > 30 µM
[35]
  bioavailability: 88%
[36]
  IC50: 0.101 µM
[37]
  IC50: > 30 µM
[38]
  concentration at 4 h: 367 nM
[39]
  Activity: Dose-dependent effect
[40]
  concentration at 4 h: 9160 nM
[41]
  Activity: 69%
[42]
  concentration at 4 h: 819 nM
[43]
  IC50: 15.4 µM
[44]
  concentration at 4 h: 2910 nM
[45]
  logD: 3.32
[46]
  Activity: 102%
[47]
  IC50: > 30 µM
[48]
  efflux ratio: 1.8
[49]
  Kp uu: 0.32
[50]
  Activity: 56%

## Cc1cn(-c2ccc3c(c2O)CCN(Cc2cccc(C(F)(F)F)c2)C3=O)cn1
[12]
  CLint scaled: < 8 mL/min/kg
[51]
  half-life: 0.322 h
[26]
  Papp A→B: 10.4 ×10⁻⁶ cm/s
[52]
  CLint scaled: 90.5 mL/min/kg
[36]
  IC50: 0.4 µM
[48]
  efflux ratio: 1.9
